From US12286632B2, “Rationally-designed synthetic peptide shuttle agents for delivering polypeptide cargos from an extracellular space to the cytosol and/or nucleus of a target eukaryotic cell, uses thereof, methods and kits relating to same” (Feldan Bio Inc., priority 2016, dated 2025)

Assays:
Jurkat cells = assay: GFP-NLS transduction in different adherent and suspension cells (flow cytometry, Pos cells % and viability %); format: cell-based, Human; conditions: Protocol C, 5 μM shuttle, 5 μM GFP-NLS, 15 seconds
Procedure: (§1) The ability of the shuttle agent His-CM18-PTD4 to deliver GFP-NLS to the nuclei of different adherent and suspension cells using Protocols B (adherent cells) or C (suspension cells) as described in Example 9.1 was examined. The cell lines tested included: HeLa, Balb3T3, HEK 293T, CHO, NIH3T3, Myoblasts, Jurkat, THP-1, CA46, and HT2 cells, which were cultured as described in Example 1. GFP-NLS (5 μM; see Example 5.1) was co-incubated with 35 μM of His-CM18-PTD4 and exposed to adherent cells for 10 seconds (Protocol B), or was co-incubated with 5 μM of His-CM18-PTD4 and exposed to suspension cells for 15 seconds (Protocol C). […] “Pos cells (%)” is the mean percentages of all cells that emanate a GFP signal.

HT2 cells = assay: as above; format: cell-based; conditions: Protocol C, 5 μM shuttle, 5 μM GFP-NLS, 15 seconds
Procedure: as §1

THP-1 cells = assay: HOXB4-WT transduction: target gene mRNA by real-time PCR (Fold over control) and total RNA (ng/μL) as marker for cell viability; format: cell-based, human; conditions: for Total RNA in ng/μL (mean ± St. Dev): THP-1, serum
Procedure: Control and treated cells are transferred to separate sterile 1.5-mL tubes and centrifuged for 5 minutes at 300g. The cell pellets are resuspended in appropriate buffer to lyse the cells. RNAase-free 70% ethanol is then added followed by mixing by pipetting. The lysates are transferred to an RNeasy™ Mini spin column and centrifuged 30 seconds at 13000 RPM. After several washes with appropriate buffers and centrifugation steps, the eluates are collected in sterile 1.5-mL tubes on ice, and the RNA quantity in each tube is then quantified with a spectrophotometer. For DNase treatment, 2 μg of RNA is diluted in 15 μL of RNase-free water. 1.75 μL of 10X DNase buffer and 0.75 μL of DNase is then added, followed by incubation at 37° C. for 15 minutes. For reverse transcriptase treatment, 0.88 μL of EDTA […] is added, followed by incubation at 75° C. for 5 minutes. In a PCR tube, […] of DNase-treated RNA is mixed with 4 μL of iScript™ Reverse transcription Supermix (5X) and […] of nuclease-free water. The mix is incubated in a PCR machine with the following program: 5 min at 25° C., 30 min at 42° C. and 5 min at 85° C. Newly synthesized cDNA is transferred in sterile 1.5-mL tubes and diluted in 2 μL of nuclease-free water. 18 μL per well of a qPCR machine (CFX-96™) mix is then added in a PCR plate for analysis.
Briefly, THP-1 cells were plated at 30 000 cells/well one day before transduction. HOXB4-WT recombinant protein ([…]; Example 14.1) was co-incubated with different concentrations of His-CM18-PTD4 ([…]) and then exposed to THP-1 cells for 2.5 hours in the presence of serum. The cells were subjected to real time-PCR analysis as described in Example 14.2 to measure the mRNA levels of a target gene as a marker for HOXB4 activity, which was then normalized to the target gene mRNA levels detected in the negative control cells (no treatment), to obtain a “Fold over control” value. Total RNA levels (ng/μL) were also measured as a marker for cell viability.
Briefly, THP-1 cells were plated at 30 000 cells/well one day before the first time course experiment. HOXB4-WT recombinant protein (1.5 μM; Example 14.1) was co-incubated with His-CM18-PTD4 (0.8 μM) and then exposed to THP-1 cells for 0, 2.5, 4, 24 or 48 hours in presence of serum. The cells were subjected to real time-PCR analysis as described in Example 14.2 to measure mRNA levels of a target gene as a marker for HOXB4 activity, which was then normalized to the target gene mRNA levels detected in the negative control cells (no treatment), to obtain a “Fold over control” value. Total RNA levels (ng/μL) were also measured as a marker for cell viability.
Briefly, THP-1 cells were plated at 30 000 cells/well one day before the first time course experiment. HOXB4-WT recombinant protein (0.3 μM; Example 14.1) was co-incubated with His-CM18-PTD4 (0.8 μM) and then exposed to THP-1 cells for 0, 0.5, 1, 2, 2.5, 3 or 4 hours in presence of serum. The cells were subjected to real time-PCR analysis as described in Example 14.2 to measure mRNA levels of a target gene as a marker for HOXB4 activity, which was then normalized to target gene mRNA levels detected in the negative control cells (no treatment), to obtain a “Fold over control” value. Total RNA levels (ng/μL) were also measured as a marker for cell viability.
Briefly, THP-1 cells were plated at 30 000 cells/well one day before the first time course experiment. HOXB4-WT recombinant protein (1.5 μM; Example 14.1) co-incubated with the shuttle agents His-CM18-PTD4, TAT-KALA, EB1-PTD4, His-C(LLKK)3C-PTD4 and His-CM18-PTD4-His at 0.8 μM, and then exposed to THP-1 cells for 2.5 hours in presence of serum. The cells were subjected to real time-PCR analysis as described in Example 14.2 to measure mRNA levels of a target gene as a marker for HOXB4 activity, which was then normalized to target gene mRNA levels detected in the negative control cells (no treatment), to obtain a “Fold over control” value. […]

CC[C@H](C)[C@H](NC(=O)[C@H](CCCCN)NC(=O)[C@H](CCCCN)NC(=O)[C@H](Cc1ccccc1)NC(=O)[C@H](CC(C)C)NC(=O)[C@H](CCCCN)NC(=O)[C@H](Cc1c[nH]c2ccccc12)NC(=O)[C@H](CCCCN)NC(=O)[C@H](Cc1c[nH]cn1)NC(=O)[C@H](Cc1c[nH]cn1)NC(=O)[C@H](Cc1c[nH]cn1)NC(=O)[C@H](Cc1c[nH]cn1)NC(=O)[C@H](Cc1c[nH]cn1)NC(=O)[C@@H](N)Cc1c[nH]cn1)C(=O)NCC(=O)N[C@@H](C)C(=O)N[C@H](C(=O)N[C@@H](CC(C)C)C(=O)N[C@@H](CCCCN)C(=O)N[C@H](C(=O)N[C@@H](CC(C)C)C(=O)N[C@H](C(=O)N[C@H](C(=O)NCC(=O)N[C@@H](Cc1ccc(O)cc1)C(=O)N[C@@H](C)C(=O)N[C@@H](CCCNC(=N)N)C(=O)N[C@@H](C)C(=O)N[C@@H](C)C(=O)N[C@@H](C)C(=O)N[C@@H](CCCNC(=N)N)C(=O)N[C@@H](CCC(N)=O)C(=O)N[C@@H](C)C(=O)N[C@@H](CCCNC(=N)N)C(=O)N[C@@H](C)C(=O)O)[C@@H](C)O)[C@@H](C)O)C(C)C)C(C)C [His-CM18-PTD4]
Cell viability (%) (±St. Dev.; n = 3) (Jurkat cells): 73.6 ± 0.7% | Mean % cells with GFP signal (±St. Dev.; n = 3) (Jurkat cells): 30.7 ± 2.2% | Cell viability (%) (±St. Dev.; n = 3) (HT2 cells): 90.6 ± 1.5% | Mean % cells with GFP signal (±St. Dev.; n = 3) (HT2 cells): 30.5 ± 2.5% | target gene mRNA transcription after HOXB4-WT transduction (in words) (THP-1 cells; 2.5 hours in the presence of serum): dose-dependent increase in mRNA transcription of the target gene | Total RNA in ng/μL (mean ± St. Dev) (THP-1 cells; Table 14.1, 2.5 hours, shuttle 1 μM, HOXB4-WT 0 μM (alone)): 252 ± 10.7 ng/µL | Total RNA in ng/μL (mean ± St. Dev) (THP-1 cells; Table 14.2, shuttle 0.8 μM, HOXB4-WT 0 μM (alone), exposure 2.5 h): 184 ± 6.0 ng/µL | Total RNA in ng/μL (mean ± St. Dev) (THP-1 cells; Table 14.3, shuttle 0 μM, HOXB4-WT 0.3 μM (alone), exposure 2.5 h): 260 ± 7.1 ng/µL | Total RNA in ng/μL (mean ± St. Dev) (THP-1 cells; Table 14.4, shuttle 0 μM, HOXB4-WT 1.5 μM (alone), exposure 2.5 h): 303.9 ± 7.6 ng/µL
